The results in this text go back to US12312605B2, “Riboflavin derivative-containing medium” (AJINOMOTO CO., INC., priority 2017, dated 2025).

Structures can show the parent of a compound that is named as a salt.

Holding throughout (assay type): cell-based
The subject of test [1] is iPS cells (201B7 strain). Nature of the test: Effective concentration of RFV derivatives: iPS cell growth in medium refrigerated for 2 weeks. Set-up: key to cell growth: X; not grown; ◯; cell grown. Particulars: for storage stability of medium compared with RFV: any medium (Essential 8 or TeSR2 supplement), refrigerated 2 weeks. The procedure:
(§1) 201B7 strain purchased from iPS Academia Japan, Inc. was used as the iPS cell. Cell culture was performed using a culture vessel coated with Matrigel (Nippon Becton, Dickinson and Company: 354277) or iMatrix-511 (Nippi. Inc.: 892002) as an extracellular matrix under conditions of 5% CO2/37° C.
(§2) Modified DMEM/F-12 was mixed with each supplement of Essential 8 (Thermo Fisher SCIENTIFIC: A1517001), TeSR-E8 (STEMCELL Technologies: #05940), TeSR2 (STEMCELL Technologies: #05860) to prepare a complete medium. The medium was stored in a refrigerator with a glass door under non-light-shielding (fluorescent light irradiation time: 10 hr/day) and then used for culture, based on which the storage stability of the medium was studied.
The effectiveness of FAD and RTB, which are RFV derivatives, was studied, and the effective concentration ranges of FMN, FAD and RTB were studied. A complete medium was prepared using Modified DMEM/F-12 (FMN−) as the basal medium and Essential 8 or TeSR2 supplement as the supplement. RFV, FMN (Riboflavin 5′-Monophosphate Sodium Salt), FAD (Flavin Adenine Dinucleotide Disodium Salt Hydrate (Tokyo Chemical m Industry Co., Ltd., F0014, hereinafter the same)) and RTB (Riboflavin Tetrabutyrate, Wako Pure Chemical Industries, Ltd., 185-00861) were each added to the complete medium at a final concentration of 0.47 to 15.2 μM (concentration converted to free form anhydrate in the case of salt and/or hydrate). A medium supplemented with Fe^2+ and Zn^2+ at 100 mol % was also prepared.
Each medium was refrigerated under non-light-shielding for 2 weeks and then the proliferation ability of iPS cells was studied. A 12-well plate coated with Matrigel was prepared, 10,000 cells per well were seeded in a single cell state. On the day when the cells were seeded, the evaluation was performed using the medium prepared above. The culture period was set to 7 days, and the cell confluency was measured using IncuCyte Zoom on day 7 from the start of the culture. At the time of seeding, a medium supplemented with Y-27632 at a final concentration of 10 μM was used. In the evaluation from the following day, the cells were cultured in a medium not supplemented with Y-27632.
To study the effective concentration range of FAD, which is an RFV derivative, the unperformed part of Example 5 was evaluated. A complete medium was prepared using Modified DMEM/F-12 (FMN−) as the basal medium and TeSR2 supplement as the supplement. FAD (Flavin Adenine Dinucleotide Disodium Salt Hydrate) was added to the complete medium at a final concentration of 0.47 to 15.2 μM. A medium supplemented with Fe^2+ and Zn^2+ at 100 mol % was prepared.

The subject of test [2] is iPS cells (201B7 strain). Nature of the test: Influence of Fe, Zn, RFV on storage stability of medium (iPS cell confluency). Particulars: Essential 8 supplement; for contribution to lowering of storage stability of the medium: 100 vs 25 mol % in Modified DMEM/F-12 with FMN 20 mol %, refrigerated 2 weeks. The procedure: as §1, §2
To what extent Fe^2+, Zn^2+ and RFV contribute to the storage stability of the medium was studied. Complete media were respectively prepared by adding each component to Modified DMEM/F-12 (FMN−) (Table 5). Each medium was refrigerated under non-light-shielding for 0 and 2 weeks and then the proliferation ability of iPS cells was studied.
A 12-well plate coated with Matrigel was prepared, 10,000 cells per well were seeded in a single cell state. On the day when the cells were seeded, the evaluation was performed using the medium prepared above. The culture period was set to 7 days, and the cell confluency was measured using IncuCyte Zoom on day 7 from the start of the culture. At the time of seeding, a medium supplemented with Y-27632 at a final concentration of 10 μM was used. In the evaluation from the following day, the cells were cultured in a medium not supplemented with Y-27632.

In test [3] the test system is iPS cells (201B7 strain). Description: Effectiveness of RFV during iPS cell culture (cell confluency, day 7). Particulars: Modified DMEM/F-12 (FMN-) + Essential 8 supplement, RFV 0.00-0.176 mg/L, Fe2+ and Zn2+ 25 or 100 mol %, Matrigel.
Description: 201B7 strain purchased from iPS Academia Japan, Inc. was used as the iPS cell. Cell culture was performed using a culture vessel coated with Matrigel (Nippon Becton, Dickinson and Company: 354277) or iMatrix-511 (Nippi. Inc.: 892002) as an extracellular matrix under conditions of 5% CO2/37° C. Whether RFV is an essential component during iPS cell culture was studied. A complete medium was prepared by mixing the basal medium (Solution A: Modified DMEM/F-12 (FMN−)) and Essential 8 supplement (Solution B). Media were prepared by adding RFV to the complete medium to final concentrations of 0.00, 0.0176, 0.044, 0.088, 0.176 mg/L (No. 1 to No. 5 in Table 3). Along therewith, to grasp the influence of the reduced mineral components, media supplemented with Fe^2+ and Zn^2+ at 100 mol % were also prepared (No. 6 to No. 10 in Table 3). After preparing the medium, a 12-well plate coated with Matrigel was prepared, and 10,000 cells per well were seeded in a single cell state. On the day when the cells were seeded, the evaluation was performed using the medium prepared above. The culture period was set to 7 days, and the cell confluency was measured as an index of cell proliferation using IncuCyte Zoom (Essen Bioscience) on day 7 from the start of the culture. […]
Where [4] appears, read: 0.47 μM (80 mol % vs DMEM/F-12), Fe2+ and Zn2+ 25 mol %, Essential 8 supplement, medium refrigerated 2 weeks.
[5] abbreviates: 0.47 μM (80 mol % vs DMEM/F-12), Fe2+ and Zn2+ 25 mol %, TeSR2 supplement, medium refrigerated 2 weeks.
Setting [6] is: 0.47 μM (80 mol % vs DMEM/F-12), Fe2+ and Zn2+ 100 mol %, Essential 8 supplement, medium refrigerated 2 weeks.
Where [7] appears, read: 0.47 μM (80 mol % vs DMEM/F-12), Fe2+ and Zn2+ 100 mol %, TeSR2 supplement, medium refrigerated 2 weeks, Example 5.
The mark [8] stands for this setting: 1.52 μM (259 mol % vs DMEM/F-12), Fe2+ and Zn2+ 25 mol %, Essential 8 supplement, medium refrigerated 2 weeks.
The mark [9] stands for this setting: 1.52 μM (259 mol % vs DMEM/F-12), Fe2+ and Zn2+ 100 mol %, Essential 8 supplement, medium refrigerated 2 weeks.
Where [10] appears, read: 2.57 μM (437 mol % vs DMEM/F-12), Fe2+ and Zn2+ 25 mol %, TeSR2 supplement, medium refrigerated 2 weeks.
Where [11] appears, read: 15.2 μM (2587 mol % vs DMEM/F-12), Fe2+ and Zn2+ 25 mol %, TeSR2 supplement, medium refrigerated 2 weeks.
Where [12] appears, read: 15.2 μM (2587 mol % vs DMEM/F-12), Fe2+ and Zn2+ 100 mol %, TeSR2 supplement, medium refrigerated 2 weeks, Example 5.
Where [13] appears, read: 2.57 μM (437 mol % vs DMEM/F-12), Fe2+ and Zn2+ 100 mol %, TeSR2 supplement, medium refrigerated 2 weeks, Example 5.

With `Cc1cc2nc3c(=O)[nH]c(=O)nc-3n(C[C@H](O)[C@H](O)[C@H](O)COP(=O)(O)OP(=O)(O)OC[C@H]3O[C@@H](n4cnc5c(N)ncnc54)[C@H](O)[C@@H]3O)c2cc1C` [FAD, Flavin Adenine Dinucleotide Disodium Salt Hydrate], the cell growth entry was “◯” with iPS cells (201B7 strain) [1] (setting [4]); “◯” in the test with iPS cells (201B7 strain) [1] (setting [5]); “◯” with iPS cells (201B7 strain) [1] (setting [6]); “◯” in the test on iPS cells (201B7 strain) [1] (setting [7]); “◯” in the test on iPS cells (201B7 strain) [1] (0.47 μM (80 mol % vs DMEM/F-12), Fe2+ and Zn2+ 100 mol %, TeSR2 supplement, medium refrigerated 2 weeks, Example 6); “◯” in the test with iPS cells (201B7 strain) [1] (setting [8]). Further, the cell growth entry is reported as “X” with iPS cells (201B7 strain) [1] (setting [9]); “◯” in the test on iPS cells (201B7 strain) [1] (setting [10]); “◯” with iPS cells (201B7 strain) [1] (2.57 μM (437 mol % vs DMEM/F-12), Fe2+ and Zn2+ 100 mol %, TeSR2 supplement, medium refrigerated 2 weeks, Example 6); “◯” in the test with iPS cells (201B7 strain) [1] (setting [11]); “X” in the test on iPS cells (201B7 strain) [1] (setting [12]); “X” in the test on iPS cells (201B7 strain) [1] (15.2 μM (2587 mol % vs DMEM/F-12), Fe2+ and Zn2+ 100 mol %, TeSR2 supplement, medium refrigerated 2 weeks, Example 6). Further, the “concentration at which culturing was possible (comparison)” value in the test on iPS cells (201B7 strain) [1] (Essential 8 or TeSR2 supplement, medium refrigerated 2 weeks) is “higher for FAD than FMN and RTB”. Also, in the test with iPS cells (201B7 strain) [1], the “storage stability of medium compared with RFV” value is “higher storage stability than that of RFV”.
For the molecule `Cc1cc2nc3c(=O)[nH]c(=O)nc-3n(C[C@H](O)[C@H](O)[C@H](O)COP(=O)(O)O)c2cc1C` [FMN, Riboflavin 5′-Monophosphate Sodium Salt], the cell growth result in the test with iPS cells (201B7 strain) [1] (setting [4]) was “◯”; in the test on iPS cells (201B7 strain) [1] (setting [5]), “◯”; in the test with iPS cells (201B7 strain) [1] (setting [6]) it was “◯”; in the test with iPS cells (201B7 strain) [1] (setting [7]), “◯”; in the test with iPS cells (201B7 strain) [1] (setting [8]), “X”; with iPS cells (201B7 strain) [1] (setting [9]) it was “X”. The cell growth entry with iPS cells (201B7 strain) [1] (setting [10]) is listed as “◯”; in the test with iPS cells (201B7 strain) [1] (setting [13]), “X”; in the test with iPS cells (201B7 strain) [1] (setting [11]), “X”; in the test on iPS cells (201B7 strain) [1] (setting [12]), “X”. For the same molecule, in the test with iPS cells (201B7 strain) [1], the “storage stability of medium compared with RFV” value is recorded as “higher storage stability than that of RFV”.
Turning to `O.O.O.O.O.O.O.O=S(=O)([O-])[O-].[Fe+2]` [Fe^2+, iron (II) sulfate heptahydrate], the “contribution to lowering of storage stability of the medium” value with iPS cells (201B7 strain) [2] is recorded as “do not contribute to lowering of storage stability”.
Turning to `Cc1cc2nc3c(=O)[nH]c(=O)nc-3n(C[C@H](O)[C@H](O)[C@H](O)CO)c2cc1C` [RFV, riboflavin], the “effectiveness of RFV during iPS cell culture (cell confluency)” value in the test on iPS cells (201B7 strain) [3] is given as “essential for cell culture”. Also, in the test on iPS cells (201B7 strain) [2] (medium refrigerated non-light-shielded 2 weeks, Matrigel, day 7), the “cell growth after storage of medium” value was “cells could not grow after storage for 2 weeks”. Besides, the cell growth entry in the test with iPS cells (201B7 strain) [1] (setting [4]) was “X”; in the test with iPS cells (201B7 strain) [1] (setting [5]), “◯”; in the test on iPS cells (201B7 strain) [1] (setting [6]), “X”; in the test with iPS cells (201B7 strain) [1] (setting [7]), “◯”; in the test with iPS cells (201B7 strain) [1] (setting [8]), “X”; with iPS cells (201B7 strain) [1] (setting [9]), “X”. In addition, the cell growth result with iPS cells (201B7 strain) [1] (setting [10]), with iPS cells (201B7 strain) [1] (setting [13]), in the test on iPS cells (201B7 strain) [1] (setting [11]) and with iPS cells (201B7 strain) [1] (setting [12]) was “X” in each case.
Consider `CCCC(=O)OC[C@@H](OC(=O)CCC)[C@@H](OC(=O)CCC)[C@H](Cn1c2nc(=O)[nH]c(=O)c-2nc2cc(C)c(C)cc21)OC(=O)CCC` [RTB, Riboflavin Tetrabutyrate], for which the cell growth entry is recorded as “◯” in the test on iPS cells (201B7 strain) [1] (setting [4]); “◯” in the test with iPS cells (201B7 strain) [1] (setting [5]); “◯” in the test with iPS cells (201B7 strain) [1] (setting [6]); “◯” in the test on iPS cells (201B7 strain) [1] (setting [7]); “X” in the test on iPS cells (201B7 strain) [1] (setting [8]); “X” in the test with iPS cells (201B7 strain) [1] (setting [9]). Besides, the cell growth entry in the test with iPS cells (201B7 strain) [1] (setting [10]), in the test with iPS cells (201B7 strain) [1] (setting [13]), in the test on iPS cells (201B7 strain) [1] (setting [11]) and in the test with iPS cells (201B7 strain) [1] (setting [12]) was “X” in each case. Further, in the test with iPS cells (201B7 strain) [1], the “storage stability of medium compared with RFV” value is recorded as “higher storage stability than that of RFV”.
Consider `O.O.O.O.O.O.O.O=S(=O)([O-])[O-].[Zn+2]` [Zn^2+, zinc sulfate heptahydrate], for which the “contribution to lowering of storage stability of the medium” value in the test with iPS cells (201B7 strain) [2] was “do not contribute to lowering of storage stability”.
